Assay results published in patent US20130131018A1, “SUBSTITUTED ISOQUINOLINES AND THEIR USE AS TUBULIN POLYMERIZATION INHIBITORS” (Exonhit S.A., priority 2010, published 2013).
Where a name gives a salt, the structure may show the parent alone. Read-outs that look alike come from different tables or passages of the source.

Tests used:
[1] = phase 1 studies, cited from earlier work
blood flow = conditions: animal studies, cited from earlier work
[2] = test system: Endothelial cells (HUVEC); assay: Neovessels formation inhibition (capillary tube formation on Matrigel); type: cell-based; conditions: Homo sapiens
Description: The capability of compounds to inhibit the formation of capillaries was evaluated in vitro. Twenty thousand Endothelial cells (HUVEC) were placed on a Matrigel matrix and allowed to form capillary tubes in the presence or absence of the compounds overnight. The cells were stained with calcein AM, and the effect of the compounds on capillary tube formation was assessed using an inverted fluorescent microscope (Nikon). The reference compound used in this assay AVE-8063 is 3-amino-deoxycombretastatin A-4.

K562 cell line = assay: MTT assay: cytotoxicity against the K562 cell line; type: cell-based; conditions: Homo sapiens, K562 cells, 72 h, growth inhibition
In short: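 Fifteen thousand K562 cells per well were exposed in triplicate to a compound dilution series for 72 h at 37 °C, 5% CO2. Viability was measured by MTT absorbance at 550 nm relative to untreated control, and IC50 was obtained by nonlinear regression.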

[3] = molecular target: T1, colchicine site on tubulin (biotinylated porcine tubulin) (Sus scrofa, UniProt P02550+P02554); assay: Tubulin displacement assay (3H-colchicine radioligand binding, SPA)
T1 construct: biotin (chemical label)
T1 sequence (P02554 whole entry): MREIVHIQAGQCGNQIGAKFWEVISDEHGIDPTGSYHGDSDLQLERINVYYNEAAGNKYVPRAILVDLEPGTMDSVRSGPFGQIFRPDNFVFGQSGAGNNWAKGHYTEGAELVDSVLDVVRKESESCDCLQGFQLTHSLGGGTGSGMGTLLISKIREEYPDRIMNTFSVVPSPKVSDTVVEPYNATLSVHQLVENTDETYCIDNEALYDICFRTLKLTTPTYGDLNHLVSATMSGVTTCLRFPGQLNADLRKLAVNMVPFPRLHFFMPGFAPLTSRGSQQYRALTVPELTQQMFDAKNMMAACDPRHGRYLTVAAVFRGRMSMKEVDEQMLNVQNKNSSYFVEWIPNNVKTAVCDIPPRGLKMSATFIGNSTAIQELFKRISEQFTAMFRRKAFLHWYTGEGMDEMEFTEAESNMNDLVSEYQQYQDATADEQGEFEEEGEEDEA
T1 sequence (P02550 whole entry): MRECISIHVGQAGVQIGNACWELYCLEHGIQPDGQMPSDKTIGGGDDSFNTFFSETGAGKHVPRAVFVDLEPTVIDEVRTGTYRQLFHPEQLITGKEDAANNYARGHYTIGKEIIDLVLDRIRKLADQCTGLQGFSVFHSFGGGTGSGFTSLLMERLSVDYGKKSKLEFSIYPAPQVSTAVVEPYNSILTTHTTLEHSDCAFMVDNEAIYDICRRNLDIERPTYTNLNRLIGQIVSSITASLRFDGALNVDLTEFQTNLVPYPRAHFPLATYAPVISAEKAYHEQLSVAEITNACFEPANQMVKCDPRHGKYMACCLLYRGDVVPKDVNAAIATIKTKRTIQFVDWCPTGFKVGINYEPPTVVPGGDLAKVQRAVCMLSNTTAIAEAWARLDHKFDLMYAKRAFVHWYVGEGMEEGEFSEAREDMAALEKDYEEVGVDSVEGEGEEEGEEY
Description: The assay was developped following the method published by Tahir et al. (2001) and others using biotinylated porcine tubulin captured to streptavidin coated yttrium silicate scintillation proximity assay (YSi SPA) beads in a PIPES/EGTA/MgCl2/GTP buffer. […] IC50s were determined using GraphPad Prism Version 5.01 and the sigmoidal dose response with variable slope curve fit.

purified tubulin = molecular target: T2, purified tubulin (Sus scrofa, UniProt P02550+P02554); assay: Tubulin polymerisation assay (CytoDYNAMIX Screen kit, absorbance at 340 nm); type: biochemical; conditions: for inhibition at 5 µM: 5 μM compound, 4 mg/ml tubulin, read-out: % Inhibition of tubulin polymerization at 5 μM; for IC50: tubulin polymerization
T2 construct: purchased Cytoskeleton #BK006P
T2 sequence (P02554 whole entry): as the sequence (P02554 whole entry) above
T2 sequence (P02550 whole entry): as the sequence (P02550 whole entry) above
Description: The polymerization of purified tubulin was monitored spectrophotometrically by the change in absorbance at 340 nm using the CytoDYNAMIX Screen kit (#BK006P, Cytoskeleton) according to the instructions of the manufacturer. […] The absorbance was measured at 1 minute intervals for 60 minutes. The test compound was added to a 4 mg/ml tubulin solution containing 10% glycerol and 1 mM GTP in Buffer 1 (Buffer 1: 80 mM PIPES; 2 mM MgCl2; 0.5 mM EGTA, pH 6.9). Increased absorbance indicates increase in microtubule formation from tubulin heterodimers.

HUVEC = assay: Pre-established vessels disruption (capillary tubes on Matrigel); type: cell-based; conditions: Homo sapiens, HUVEC tubes formed 5 hours, then compounds overnight
Description: To explore the effect of the compounds on pre-established vasculature, twenty thousand cells (HUVEC) were seeded and incubated over Matrigel for 5 hours to allow the capillary tubes to form. Then, compounds were added and incubated overnight. The disappearance of existing vasculature was monitored with fluorescent microscopy.

[4] = HUVEC on Matrigel, compounds overnight, read-out: Neovessels Formation Inhibition Number of Branch Junctions IC50
[5] = HUVEC on Matrigel, compounds overnight, read-out: Neovessels Formation Inhibition Total Tubule Length IC50
[6] = competition with 50 nM [3H]-colchicine, 4 h at 37° C., read-out: IC50
[7] = read-out: Pre-established Vessels Disruption Number of Branch Junctions IC50
[8] = read-out: Pre-established Vessels Disruption Total Tubule Length IC50

| Compound | dose-limiting toxicities ([1]; administered intravenously) | Responses seen in [1] | blood flow decrease in heart, kidney, and intestine (blood flow; heart, kidney, intestine) | blood flow reduction in spleen, skeletal muscle, and brain (blood flow; spleen, skeletal muscle, brain) | blood flow reduction in the tumor (blood flow; tumor) | IC50 [2, 4] | IC50 [2, 5] | IC50 (K562 cell line) | IC50 [3, 6] | inhibition at 5 µM (purified tubulin) | IC50 (purified tubulin) | IC50 (HUVEC; [7]) | IC50 (HUVEC; [8]) | IC50 ([2]; HUVEC, read-out: Neovessels Formation Inhibition Number of Branch Junctions IC50 (nM)) | IC50 ([2]; HUVEC, read-out: Neovessels Formation Inhibition Total Tubule Length IC50 (nM)) | IC50 [3] |
| --- | --- | --- | --- | --- | --- | --- | --- | --- | --- | --- | --- | --- | --- | --- | --- | --- |
| COc1ccc(/C=C\c2cc(OC)c(OC)c(OC)c2)cc1OP(=O)([O-])[O-].[Na+].[Na+] [CA4P, CA-4 disodium phosphate] | dyspnea, neurological disturbances (syncope, motor neuropathy, ataxia), and cardiac and intestinal ischemia | thyroid cancer, sarcoma, and adrenocortical carcinoma | no significant decrease | less than 7 fold | 100 fold |  |  |  |  |  |  |  |  |  |  |  |
| CCOc1ccc2c(Cc3cc(OC)c(OC)c(OC)c3)cncc2c1O [Compound 1, 4-(3,4,5-Trimethoxybenzyl)-7-ethoxyisoquinolin-8-ol hydrochloride] |  |  |  |  |  | 38.5 nM | 54.5 nM | 29.1 nM | 220 nM | 85% | 1190 nM |  |  |  |  |  |
| CCOc1ccc2c(Cc3cc(OC)c(OC)c(OC)c3)cncc2c1N [Compound 3, 7-Ethoxy-4-(3,4,5-trimethoxybenzyl)isoquinolin-8-amine dihydrochloride] |  |  |  |  |  | 15.3 nM | 21.8 nM | 10.7 nM | 170 nM | 76.6% | 1040 nM | 14.9 nM | 45.6 nM |  |  |  |
| CCOc1ccc2c(C(=O)c3cc(OC)c(OCC)c(OC)c3)cncc2c1OS(N)(=O)=O [Compound 57, 7-Ethoxy-4-(4-ethoxy-3,5-dimethoxybenzoyl)isoquinolin-8-yl sulfamate] |  |  |  |  |  | 2.65 nM | 3.97 nM | 2.69 nM | 91.9 nM | 17% |  | 4.37 nM | 6.72 nM |  |  |  |
| CCOc1ccc2c(C(=O)c3cc(OC)c(OCC)c(OC)c3)cncc2c1NS(N)(=O)=O [Compound 59, 7-Ethoxy-4-(4-ethoxy-3,5-dimethoxybenzoyl)isoquinolin-8-yl sulfamide] |  |  |  |  |  | 8.32 nM | 25.2 nM | 7.04 nM | 745 nM | 21.5% |  | 27.1 nM | 38.2 nM |  |  |  |
| CCCOc1c(OC)cc(C(=O)c2cncc3c(O)c(OCC)ccc23)cc1OC [Compound 67, (3,5-Dimethoxy-4-propoxyphenyl)(7-ethoxy-8-hydroxyisoquinolin-4-yl)methanone hydrochloride] |  |  |  |  |  | 3.84 nM | 4.8 nM | 4.64 nM | 38.7 nM | 10% |  | 9.18 nM | 12.6 nM |  |  |  |
| CCOc1ccc2c(C(=O)c3cc(OC)c(OC)c(OC)c3)cncc2c1OC(C)=O [Compound 96, 7-Ethoxy-4-(3,4,5-trimethoxybenzoyl)isoquinolin-8-yl acetate] |  |  |  |  |  | 5.07 nM | 8.1 nM | 5.85 nM | 3300 nM | 54.5% |  | 9.14 nM | 15.3 nM |  |  |  |
| CCOc1ccc2c(C(=O)c3cc(OC)c(OC)c(OC)c3)cncc2c1O [Compound 97, (7-Ethoxy-8-hydroxyisoquinolin-4-yl)(3,4,5-trimethoxyphenyl)methanone hydrochloride] |  |  |  |  |  | 4.04 nM | 5.52 nM | 4.86 nM | 41.4 nM | 4% |  | 6.65 nM | 8.82 nM |  |  |  |
| CCOc1ccc2c(C(=O)c3cc(OC)c(OC)c(OC)c3)cncc2c1OP(=O)(O)O [Compound 98, 7-ethoxy-4-(3,4,5-trimethoxybenzoyl)isoquinolin-8-yl disodium phosphate] |  |  |  |  |  |  |  | 7.57 nM |  | 49% |  | 9.22 nM | 15.1 nM | 3.68 nM | 6.5 nM | 121 nM |
